Assay results as given in ChEMBL document CHEMBL1132802, “Synthesis, chiral chromatographic separation, and biological activities of the enantiomers of 10,10-dimethylhuperzine A” (Bioorg Med Chem Lett, 2000).

What was measured:
[1] = biological target: T1, Acetylcholinesterase (Bos taurus, UniProt P23795); test: Binding affinity towards Acetylcholinesterase from fetal bovine serum
T1 sequence (P23795 whole entry): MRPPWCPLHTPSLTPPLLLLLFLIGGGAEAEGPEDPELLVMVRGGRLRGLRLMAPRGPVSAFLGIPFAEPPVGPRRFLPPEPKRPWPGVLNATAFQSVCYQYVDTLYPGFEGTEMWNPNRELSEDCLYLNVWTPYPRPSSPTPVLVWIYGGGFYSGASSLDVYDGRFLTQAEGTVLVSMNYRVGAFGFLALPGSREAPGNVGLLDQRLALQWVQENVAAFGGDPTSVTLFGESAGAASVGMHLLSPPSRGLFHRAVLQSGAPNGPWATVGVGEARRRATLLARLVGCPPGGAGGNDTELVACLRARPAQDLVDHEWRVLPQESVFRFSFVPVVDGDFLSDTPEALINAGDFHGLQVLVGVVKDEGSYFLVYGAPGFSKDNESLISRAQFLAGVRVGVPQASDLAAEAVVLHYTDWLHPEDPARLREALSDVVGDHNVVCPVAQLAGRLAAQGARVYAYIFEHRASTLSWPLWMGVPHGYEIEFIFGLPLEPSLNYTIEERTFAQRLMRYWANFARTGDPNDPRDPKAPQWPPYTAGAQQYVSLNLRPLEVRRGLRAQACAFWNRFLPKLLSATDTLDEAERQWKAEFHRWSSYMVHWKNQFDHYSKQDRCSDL

[2] = organism: Rattus norvegicus; test: Effect of pretreatment on the survival of the rat embryonic forebrain neurons when exposed to glutamate; type: functional
[3] = Half life period was determined; type: ADME; settings: rat

Row | SMILES | Ki [1] | Control [2] | further results
1 | C/C=C1\C2C=C(C)C[C@]1(N)c1ccc(O)nc1C2(C)C (stereo in doubt; form 1) | 30.9 nM |  | 
2 | C/C=C1\C2C=C(C)C[C@]1(N)c1ccc(O)nc1C2(C)C.NC(CCC(=O)O)C(=O)O (stereo in doubt; form 2) |  | 71.7% | 
3 | C/C=C1\C2C=C(C)C[C@]1(N)c1ccc(O)nc1C2(C)C.NC(CCC(=O)O)C(=O)O (stereo in doubt; form 3) |  | 71.3% | 
4 | C/C=C1\C2C=C(C)C[C@]1(N)c1ccc(O)nc1C2(C)C (stereo in doubt; form 4) | 7.7 nM |  | 
5 | N[C@@H](CCC(=O)O)C(=O)O [GLUTAMIC ACID] |  | 43.7% | 
6 | C/C=C1\[C@H]2C=C(C)C[C@]1(N)c1ccc(=O)[nH]c1C2 [HUPERZINE A] |  |  | half-life [3]: 35 min
